Experimental data reported in patent US20220305017A1, “COMPOSITIONS AND METHODS FOR THE TREATMENT OF ESTROGEN-DEPENDENT DISORDERS” (ObsEva S.A., priority 2019, published 2022).
Where “and” joins values, the source holds several entries; their conditions need not be identical. Equal entries are not always repeated.

Experiments:
[1] = tested on: human female patients diagnosed as having adenomyosis; test: human clinical trial in adenomyosis (single-patient longitudinal case study and multi-patient analysis, n = 6); assay type: in vivo
Excerpt: This examples describes the results of a human clinical trial conducted to evaluate the ability of a GnRH antagonist, 3-[2-fluoro-5-(2,3-difluoro-6-methoxybenzyloxy)4-methoxyphenyl]-2,4-dioxo-1,2,3,4-tetrahydrothieno [3,4d]pyrimidine-5-carboxylic acid (represented by formula (VI)), or a pharmaceutically acceptable salt thereof, to treat adenomyosis, an estrogen-dependent disease, in human patients diagnosed as having this condition.
One aim of this study was to investigate the ability of the GnRH antagonist to maintain its therapeutic effects despite being administered to patients in a progressively lower dosage throughout the trial. To this end, the patients treated in this study was first administered the GnRH antagonist of formula (VI) in an amount of 200 mg/day during an initial 12-week period. The GnRH antagonist was then administered to the patients in a reduced amount of 100 mg/day during a subsequent 12-week period. The patients' responsiveness to the GnRH antagonist was monitored throughout the study.
In addition to assessing the effectiveness of the GnRH antagonist when administered at lower doses, another aim of this study was to evaluate the ability of the GnRH antagonist to sustain its therapeutic effects even after treatment was ceased altogether. Accordingly, after being periodically administered the GnRH antagonist of formula (VI) over the course of 24 weeks, first in an amount of 200 mg/day and then in an amount of 100 mg/day, treatment with the GnRH antagonist was halted entirely. The patients were then monitored during a post-treatment follow-up period to analyze the extent to which the therapeutic effects of the compound were sustained.
To test the effects of compound (VI), a total of n=6 human female patients diagnosed as having adenomyosis were administered compound (VI) in accordance with the dosing schedule described above. One of these patients in particular was closely monitored beginning well before their treatment with compound (VI) was initiated. The specific results of this patient's therapy are described in the section entitled “Single-Patient Longitudinal Case Study,” below. The cumulative set of results for all 6 patients is reported in the section entitled “Multi-Patient Analysis,” below.
As part of the clinical trial, a case study was conducted in which a single patient of reproductive age having clinically diagnosed adenomyosis was monitored during the course of treatment with compound (VI). The patient was nulliparous. Two years before the study began, the patient presented with heavy menstrual bleeding, pelvic pain, and dysmenorrhea. […] Their gynecologist prescribed ulipristal acetate (UPA), a selective progesterone receptor modulator (SPRM), to be administered in an amount of 5 mg/day over the course of a treatment period lasting three months.
The patient was then recommended for treatment with the GnRH antagonist represented by formula (VI) herein. Accordingly, the patient was orally administered compound (VI) in an amount of 200 mg/day for three months. Following this initial three-month period, the patient was orally administered compound (VI) in a reduced amount of 100 mg/day for a subsequent three-period. During both treatment periods, compound (VI) was administered to the patient in the form of a choline salt.
The patient was recommended for once-daily treatment with the GnRH antagonist of formula (VI). Accordingly, the patient was administered the GnRH antagonist of formula (VI) in an amount of 200 mg/day during a first treatment period, which lasted three months. At the conclusion of the first treatment period, the patient began a second treatment period in which they were administered compound (VI) in a reduced amount of 100 mg/day for three months. During both treatment periods, compound (VI) was administered to the patient in the form of a choline salt. […]

[2] = tested on: human female patients diagnosed as having uterine fibroids; test: PRIMROSE 2 Phase 3 placebo-controlled trial in uterine fibroids; assay type: in vivo
Excerpt: This example describes the results of two Phase 3, double-blind, randomized, placebo-controlled, multicenter, human clinical trials undertaken to evaluate the efficacy of the GnRH antagonist represented by formula (VI) in a series of patients suffering from uterine fibroids. In these trials, referred to herein as “PRIMROSE 1” and “PRIMROSE 2,” human female patients diagnosed as having uterine fibroids were periodically administered compound (VI), 3-[2-fluoro-5-(2,3-difluoro-6-methoxybenzyloxy)4-methoxyphenyl]-2,4-dioxo-1,2,3,4-tetrahydrothieno [3,4d]pyrimidine-5-carboxylic acid, in the form of a choline salt over the course of a 12-month treatment period. Patients were administered compound (VI) once daily in an amount of either 100 mg or 200 mg. Patients receiving compound (VI) in a daily amount of 200 mg also received once daily hormonal add-back therapy (ABT), which consisted of […] of β17-estradiol (E2) per day and 0.5 mg of norethindrone acetate (NETA) per day.
The PRIMROSE 1 study, conducted in the United States, enrolled 526 women. The PRIMROSE 2 study, conducted in the United States and Europe, enrolled 535 women.
Patients were randomized to one of several cohorts: (i) placebo, (ii) 100 mg/day of compound (VI), or (iii) 200 mg/day of compound (VI). Patients receiving 200 mg/day of compound (VI) also received once-daily ABT containing 1.0 mg E2 and 0.5 mg NETA.
Patients were assessed for uterine fibroid symptomology at baseline, after 24 weeks of treatment, and again after 52 weeks of treatment. […] Patients were also assessed in order to determine the number of days of uterine bleeding during their last 28-day interval prior to week 24 of treatment with placebo or compound (VI).
Pain levels were measured using a Verbal Rating Score (VRS), as described herein. Patients were also assessed to determine the proportion that reported an improvement in quality of life using the Uterine Fibroids Symptoms and Health-Related Quality of Life questionnaire.
To evaluate the safety of compound (VI), patients' bone mineral density levels were measured at baseline and at various timepoints during the studies.

[3] = n = 6, after 12 weeks, 200 mg/day
[4] = single patient, after 24 weeks (200 mg/day 12 weeks, then 100 mg/day 12 weeks)

In the case of `COc1cc(F)c(-n2c(=O)[nH]c3csc(C(=O)O)c3c2=O)cc1OCc1c(OC)ccc(F)c1F` [Compound (VI), 3-[2-fluoro-5-(2,3-difluoro-6-methoxybenzyloxy)4-methoxyphenyl]-2,4-dioxo-1,2,3,4-tetrahydrothieno [3,4d]pyrimidine-5-carboxylic acid], the “serum E2” value ([1]; all n = 6 cases, first 12 weeks, 200 mg/day) is reported as “less than 20 pg/ml”, the anemia ([1]; all n = 6 patients, after 12 weeks, 200 mg/day) is reported as “resolved” and the “adenomyotic lesions by MRI” value ([1]; all n = 6 patients, after 24 weeks) is reported as “remained smaller than those observed at baseline”. For the same compound, the “BMD by DEXA” value ([1]; each of n = 6 patients, after 24 weeks) was “either minimal change or no change from baseline”, the “Week 24 Uterine Volume” value ([1]; individual patients 1-3, 200 mg/day 12 weeks, then 100 mg/day 12 weeks, MRI) was 440 cm^3 and 75 cm^3 and 266 cm^3 and the “Week 12 Uterine Volume” value ([1]; individual patients 1-6, 200 mg/day oral for 12 weeks (choline salt), MRI) was 81 cm^3 and 70 cm^3 (2×) and 290 cm^3 and 84 cm^3 and 138 cm^3. For the same compound, the side effects ([1]; n = 6, 200 mg/day treatment period, resolved after reduction to 100 mg/day) was “hot flushes and vaginal dryness”, the menstrual status [1, 3] was “sustained amenorrhea” and the pelvic pain [1, 3] was “substantially reduced”. The “mean uterine volume by MRI” value ([1]; n = 6, after 12 weeks, 200 mg/day, baseline mean 320 cm^3) was 122 cm^3, the menstrual status ([1]; n = 6, weeks 13-24, 100 mg/day) was “remained in amenorrhea” and the “all of the remaining EHP-30 scales” value ([1]; single patient, after 24 weeks) was 0. For the same compound, the “endometrial thickness by vaginal ultrasound” value ([1]; single patient, after 24 weeks) was 3 mm, the “hemoglobin (Hb) level” value [1, 4] was 13.6 g/dL and the “uterine volume by MRI” value [1, 4] was 440 cm^3. For the same compound, the menstrual status ([1]; single patient, after 24 weeks of treatment) was “still in amenorrhea”, the “EHP-30 scale for emotional well-being” value ([1]; single patient, after 24 weeks, baseline 58.3) was 4.2 and the “uterine volume on clinical evaluation, equivalent weeks of gestation” value ([1]; single patient, after first 12 weeks, 200 mg/day, 16-17 weeks before treatment) was 10 weeks of gestation. The “uterine volume by MRI” value ([1]; single patient, after first 12 weeks, 200 mg/day, baseline approximately 875 cm^3) was 290 cm^3, the “concentration of E2” value ([1]; single patient, after four weeks of 200 mg/day oral (choline salt), baseline 45 pg/mL) was “less than 20 pg/mL” and the “side effects (hot flushes, vaginal dryness) after dose reduction” value ([1]; single patient, after reduction to 100 mg/day) was “disappeared”. The “5-scaled EHP-30 score” value ([1]; single patient, end of first 12 weeks, 200 mg/day) was 0, the side effects ([1]; single patient, first treatment period, 200 mg/day) was “a few instances of hot flushes and vaginal dryness” and the menstrual status ([1]; single patient, initial 12-week period, 200 mg once daily) was “remained in amenorrhea”. For the same compound, the “hemoglobin (Hb) level” value ([1]; single patient, week 12, 200 mg/day, baseline 10 g/dL) was 12.2 g/dL, the E2 level ([1]; single patient, week 16, reduced dose 100 mg/day (weeks 13-24)) was 38 pg/mL and the E2 level ([1]; single patient, week 20, reduced dose 100 mg/day (weeks 13-24)) was 26 pg/mL. The E2 level ([1]; single patient, week 24, reduced dose 100 mg/day (weeks 13-24)) was 52 pg/mL, the “bone mineral density T-scores and Z-scores (femoral neck, lumbar spine), DEXA” value ([1]; single patient, week 24 versus baseline) was “unchanged” and the “p value: Improvement in quality of life, Change from baseline in quality of life (QoL) symptom severity score (LS mean)” value ([2]; 100 mg/day) was “p = 0.004”. For the same compound, the “p value: Improvement in quality of life, Change from baseline in quality of life (QoL) symptom severity score (LS mean)” value ([2]; 200 mg/day + once-daily ABT) was “p < 0.001”, the “proportion of patients with menstrual blood loss to a level of 80 mL and a 50% reduction from baseline” value ([2]; 52 weeks, 100 mg per day without ABT) was 53.2% and the “proportion of patients with menstrual blood loss ≤80 mL and ≥50% reduction from baseline” value ([2]; 52 weeks, 200 mg per day + ABT) was 91.6%. For the same compound, the “bone mineral density, lumbar spine” value ([2]; once-daily treatment, 24 and 52 weeks, FIG. 9) was “does not induce a substantial decrease in bone mineral density”.
